This is an account of results in ChEMBL document CHEMBL3286153, “Evaluation of the antiviral efficacy of bis[1,2]dithiolo[1,4]thiazines and bis[1,2]dithiolopyrrole derivatives against the nucelocapsid protein of the Feline Immunodeficiency Virus (FIV) as a model for HIV infection” (Bioorg Med Chem Lett, 2014).

In data set [1] the test system is Feline immunodeficiency virus. Nature of the data set: Antiviral activity against Feline immunodeficiency virus infected in cat FL-4 cells assessed as viral RNA production by RT-qPCR. The data set is classed as functional, organism-based. Background: Quantitative PCR measures a nucleic acid by following its amplification.
Data set [2] can be described thus: Therapeutic index, ratio of CC50 for cat CRFK cells to EC50 for Feline immunodeficiency virus infected in cat FL-4 cells. The following applies: for selectivity ratio: read-out: Ratio CC50/EC50; for Ratio CC50/EC50: crfk. The format is cell-based.
Data set [3] in a line: Cytotoxicity against cat CRFK cells assessed as cell viability at 10 uM after 24 hrs by MTT assay. The data set is classed as cell-based, Felis catus. The conditions noted are these: read-out: Activity.
Data set [4] is described as follows: Cytotoxicity against cat CRFK cells assessed as cell viability after 7 days by MTT assay. The format is cell-based, Felis catus. The following applies: for CC50 at 168 h: CRFK cells; for CC50: crfk, 168 h.
Where [5] appears, read: Feline immunodeficiency virus, FL-4, read-out: EC50.

Take `CCOC(=O)CCN1c2c(ssc2=O)Sc2ssc(=O)c21`: the EC50 (as a rule, the midpoint of the concentration-response curve) in data set [1] (setting [5]) was 16.2 nM. For the same compound, the selectivity ratio in data set [2] is 3.5. In data set [3], the viability at 24 h, 10 µM was determined as 76.8%. Moreover, in data set [4], the cytotoxic concentration (CC50) (commonly the concentration that lowers cell viability or growth by half) at 168 h was found to be 56 nM.
The corresponding values for `CCOC(=O)CCN1c2c(ssc2=O)Sc2ssc(=S)c21` are 642 nM, 3.5, 91.2% and 2270 nM.
For `CCN1c2c(ssc2=S)Sc2ssc(=S)c21` the same measures were below 1 nM, above 31, 98.8% and 31 nM.
The corresponding values for `Cc1cn([C@H]2C[C@H](N=[N+]=[N-])[C@@H](CO)O2)c(=O)[nH]c1=O` [ZIDOVUDINE] are 5310 nM, above 18.8, above 100% and above 100000 nM.
Turning to `CC(=O)OCCN1c2c(ssc2=O)Sc2ssc(=O)c21`, in data set [1] (fl-4), the EC50 entry was “ND(toxic)”. In addition, the “Ratio CC50/EC50” value in data set [2] is reported as “ND(toxic)”. Also, the viability at 24 h, 10 µM in data set [3] is 39.2%. Further, the CC50 entry in data set [4] is given as “ND(toxic)”.
For the compound `CCN1c2c(ssc2=O)Sc2ssc(=O)c21`, in data set [1] (fl-4), the concentration giving a half-maximal response (EC50) entry is “ND(toxic)”. Moreover, the “Ratio CC50/EC50” value in data set [2] is listed as “ND(toxic)”. In addition, the viability at 24 h, 10 µM in data set [3] was found to be 40.2%. Further, the CC50 result in data set [4] is “ND(toxic)”.
As to `O=C(O)CCN1c2c(ssc2=S)Sc2ssc(=S)c21`, in data set [1] (setting [5]), the concentration giving a half-maximal response (EC50) was determined as 379 nM. The selectivity ratio in data set [2] was 4.5. The viability at 24 h, 10 µM in data set [3] was 97.2%. Besides, the CC50 at 168 h in data set [4] turned out to be 1720 nM.
The corresponding values for `CCN1c2c(ssc2=O)Sc2ssc(=S)c21` are 345 nM, above 29, above 100% and above 10000 nM.
On to `Cc1nnc(C(=O)NC(C)(C)c2nc(C(=O)NCc3ccc(F)cc3)c(O)c(=O)n2C)o1` [RALTEGRAVIR], for which, in data set [1] (setting [5]), the 50% effective concentration (EC50) was determined as 9.98 nM. Moreover, the selectivity ratio in data set [2] is above 100000. The viability at 24 h, 10 µM in data set [3] was above 100%. In data set [4], the 50% cytotoxic concentration (CC50) at 168 h was above 100000 nM.
Turning to `CCOC(=O)CCn1c2c(=O)ssc2c2ssc(=O)c21`, the EC50 entry in data set [1] (fl-4) is listed as “ND(toxic)”. In data set [2], the “Ratio CC50/EC50” value was “ND(toxic)”. The viability at 24 h, 10 µM in data set [3] came out at 78.2%. Further, the CC50 entry in data set [4] is listed as “ND(toxic)”.
For `CCn1c2c(=S)ssc2c2ssc(=S)c21`, in data set [1] (setting [5]), the EC50 amounted to 656 nM. Besides, in data set [2], the selectivity ratio came to 30.6. For the same compound, the viability at 24 h, 10 µM in data set [3] is above 100%. In data set [4], the CC50 at 168 h turned out to be 20100 nM.
